This is an account of results in ChEMBL document CHEMBL3988442, “University of Dundee, Small-Polar-MMV Screening Library” (2021).

Assay [1] is described as follows: microbe, parasite or virus in culture. Conditions: Mycobacterium tuberculosis, 96 h, read-out: pIC50 (converted).
Assay [2] can be described thus: microbe, parasite or virus in culture. The note with it: Mycobacterium tuberculosis, 72 h, read-out: pIC50 (converted).

Structures are written as SMILES.

Take `CC1CCCCN1S(=O)(=O)c1ccc(CCN)cc1` (centres undefined): the IC50 in assay [1] and in assay [2] was greater than 501 µM in each case.
Turning to `COCCCSc1ccc(NCc2ccc(C)cn2)cc1`, the figures for the IC50 in assay [1] and in assay [2] were 49.1 µM and greater than 50.1 µM, respectively.
In the case of `Cc1ccc(C)c(-n2cc(CN3CC[C@@H](O)C3)c(-c3ccccc3)n2)c1`, the IC50 in assay [1] was greater than 50.1 µM; in assay [2] it was 27.1 µM.
Regarding `O=C1[C@H]2CN(Cc3ccco3)C[C@H]2CN1c1ccsc1`, the IC50 is 14.2 µM in assay [1] and 8.77 µM in assay [2].
For `NC(=O)C(NC(=O)c1sccc1Br)c1ccccc1` (centres undefined), in that order: greater than 501 µM and greater than 501 µM.
On to `NC1(c2nc(C3CC3)cc(=O)[nH]2)CCCC1`, for which the values for the IC50 in assay [1] and in assay [2] were greater than 501 µM and 304 µM, respectively.
Regarding `CCN1C[C@H](NC(=O)c2ccc(Cl)s2)[C@@H](OC)C1`, the values for the IC50 in assay [1] and in assay [2] were greater than 501 µM and 137 µM, respectively.
With `COC(=O)COn1c(SC(C)C)nc2ccccc2c1=O`, the IC50 was greater than 50.1 µM in assay [1] and 43.2 µM in assay [2].
As for `O=C(CN1CCN(c2ccccc2)CC1)N1CCCC1`, the IC50 in assay [1] and in assay [2] was greater than 501 µM throughout.
`COc1ncccc1CN(C)C(=O)c1ccccc1F`: the IC50 in assay [1] and in assay [2] was greater than 501 µM in each case.
As to `Nc1nnc(SCc2coc(-c3ccccc3)n2)[nH]1`, the IC50 in assay [1] and in assay [2] was greater than 501 µM throughout.
For `O=C(c1cc(C2CC2)on1)N1CCC(Oc2ncccc2Cl)CC1`, the IC50 is 24.9 µM in assay [1] and 48.7 µM in assay [2].
Turning to `NC(=O)CN(Cc1ccc(Br)cc1)C(=O)c1ccco1`, the IC50 was greater than 501 µM in assay [1] and 427 µM in assay [2].
As to `CN1CCOC[C@H]1c1nc(-c2cccnc2)c[nH]1`, the IC50 in assay [1] and in assay [2] was greater than 50.1 µM throughout.
`CCc1nnc2n1CCN(C(=O)CN(CC)CC)C2`: the IC50 in assay [1] and in assay [2] was greater than 50.1 µM each time.
`COc1cccc2c1CCCCN2C(=O)c1oc(C)nc1C`: the IC50 in assay [1] and in assay [2] was greater than 50.1 µM each time.
Turning to `CCCc1ccc(N2CCN(Cc3nc4ccccc4n3C)CC2)cc1`, the IC50 in assay [1] was greater than 50.1 µM; in assay [2], 26 µM.
`CN(CCOc1ccc(Cl)cc1)C(=O)C(C)(C)CN`: the IC50 in assay [1] is 276 µM; in assay [2], 216 µM.
As for `CC(C)C1CN(C(=O)CCc2ccccn2)CCS1` (centres undefined), the results for the IC50 in assay [1] and in assay [2] were 95.5 µM and 79.8 µM, respectively.
On to `Cc1nc(N)cc(N2CCCC(COc3cccc(F)c3)C2)n1` (centres undefined), for which the IC50 in assay [1] was 27.9 µM; in assay [2], 46 µM.
For `CN(C)S(=O)(=O)NCC(O)c1ccc(Cl)c(F)c1` (centres undefined), the IC50 in assay [1] was greater than 501 µM; in assay [2], 131 µM.
As to `Cc1ccc(NC(C)C(=O)NCc2cccs2)cc1Cl` (centres undefined), the IC50 in assay [1] was 5.63 µM; in assay [2], 5.25 µM.
`CC(C)CNc1nc(N)c2cn[nH]c2n1`: the IC50 in assay [1] is 234 µM; in assay [2] it was 80 µM.
For `CNCC(=O)NCCc1c(OC)ccc2ccccc12`, in that order: greater than 501 µM and 411 µM.
For the compound `CC(C)(O)Cn1nnc(-c2cccs2)n1`, the IC50 in assay [1] and in assay [2] was greater than 501 µM throughout.
`CC(=O)Nc1ccc(C(=O)N(C)Cc2cccs2)cc1`: the IC50 is 272 µM in assay [1] and 307 µM in assay [2].
On the same counts, the results for `CCCN(CCO)CC(=O)N1CCCC(C)C1` (centres undefined) are greater than 501 µM and greater than 501 µM.
As to `NC(=O)NC(=O)CCN1CCCc2c(Br)cccc2C1`, the IC50 in assay [1] was 96 µM; in assay [2], 48 µM.
Consider `CCCNC(=O)CNc1cc(F)c(OC)c(F)c1`, for which the IC50 in assay [1] is 326 µM; in assay [2] it was 166 µM.
For the compound `O=C(NCCN1CCCC1)c1csc(-c2ccco2)n1`, the IC50 in assay [1] is 224 µM; in assay [2], 201 µM.
As to `CC1(C)CNCCC(=O)C1`, the IC50 in assay [1] was 246 µM; in assay [2], 259 µM.
On the same counts, the results for `CCN(C1CC1)S(=O)(=O)c1ccc2c(c1)OCCO2` are greater than 501 µM and 162 µM.
In the case of `O=C(NCC(F)(F)F)C1CN(C(=O)c2cnccn2)C1`, the IC50 in assay [1] and in assay [2] was greater than 50.1 µM each time.
For `Cc1ccc(CNc2ccccc2-n2ccc(C)n2)nc1`, the values for the IC50 in assay [1] and in assay [2] were 24.5 µM and greater than 50.1 µM, respectively.
Turning to `Fc1ccc(NCC2CCC3(CC2)OCCO3)nc1`, the IC50 was 205 µM in assay [1] and 264 µM in assay [2].
For the compound `Clc1ccc(OCCc2cc(C3CCN(c4ncccn4)C3)n[nH]2)cc1` (centres undefined), the IC50 was 26.1 µM in assay [1] and 40 µM in assay [2].
On the same counts, the results for `CC1CC(=O)NCCN1` (centres undefined) are greater than 501 µM and greater than 501 µM.
On to `OCCCNC(c1ccccc1)c1ccccn1` (centres undefined), for which the IC50 in assay [1] and in assay [2] was greater than 501 µM throughout.
Take `O=C(Nc1cccnc1N1CCC(CO)CC1)C1CC1`: the IC50 in assay [1] is 53.6 µM; in assay [2] it was greater than 501 µM.
Regarding `Cc1ccc(C(=O)N2CCC3(CCCCO3)CC2)cn1`, the figures for the IC50 in assay [1] and in assay [2] were greater than 501 µM and 258 µM, respectively.
For `CC(C)c1ccoc1C(=O)N(C)c1cc(C#N)ccn1`, in that order: greater than 501 µM and 140 µM.
Take `O=C(c1ccccn1)N1CCC2(CCCC2)CC1`: the results for the IC50 in assay [1] and in assay [2] were 160 µM and 245 µM, respectively.
With `CCCn1cc(CNc2nc(C3CC3)no2)cn1`, the figures for the IC50 in assay [1] and in assay [2] were 151 µM and 125 µM, respectively.
`COC(=O)C(NC(=O)c1ccc(N(C)C)nc1)c1ccccc1` (centres undefined): the IC50 in assay [1] is 10.2 µM; in assay [2] it was 33.2 µM.
In the case of `O=C(CC1Sc2ccc(Cl)cc2NC1=O)OCCO` (centres undefined), the IC50 was 286 µM in assay [1] and 222 µM in assay [2].
`O=C(c1cc(C2CC2)on1)N1CCC(Oc2ncccc2Br)CC1`: the figures for the IC50 in assay [1] and in assay [2] were 24.2 µM and greater than 50.1 µM, respectively.
Turning to `O=C(c1cc[nH]n1)N1CCCC(c2cccc(-n3ccnc3)n2)C1` (centres undefined), the IC50 in assay [1] and in assay [2] was greater than 50.1 µM throughout.
For `Cc1nc(-c2ccc(NCCc3ccc(O)cc3)nc2)[nH]c(=O)c1C`, the IC50 in assay [1] is 32.1 µM; in assay [2], 42.1 µM.
As for `Cc1cccc(CC(=O)N2CCn3cnnc3C2)c1`, the IC50 in assay [1] was 187 µM; in assay [2], 170 µM.
For `c1ccc2oc(NC3CCCN(Cc4noc(C5CC5)n4)C3)nc2c1` (centres undefined), in that order: 13.5 µM and 24.9 µM.
In the case of `O=C(c1cccnc1)N(CCO)Cc1cc(Br)ccc1F`, the IC50 in assay [1] and in assay [2] was greater than 50.1 µM throughout.
On to `O=C(Cn1cnnn1)Nc1ccc(SC(F)F)cc1`, for which the IC50 was 290 µM in assay [1] and 180 µM in assay [2].
As to `NCc1nc(-c2cccc(Cl)c2)no1`, the IC50 in assay [1] was greater than 501 µM; in assay [2], 323 µM.
On to `CNC(=O)c1sc(NC2CC2)nc1C`, for which the IC50 in assay [1] is 88.1 µM; in assay [2], 72.7 µM.
Consider `CN(CCS(=O)(=O)c1ccc(Cl)cc1)CC(=O)N(C)C`, for which the IC50 in assay [1] is 105 µM; in assay [2], 63.6 µM.
For `Cc1cc(Br)oc1C(=O)N1CCCN(C)CC1`, in that order: greater than 501 µM and 248 µM.
Regarding `CCOc1ccc(C(C)=O)cc1CN1CCCC1`, the IC50 in assay [1] is 111 µM; in assay [2], 59.8 µM.
Take `Cc1cccc(OCC(O)CN)c1` (centres undefined): the IC50 was 345 µM in assay [1] and 179 µM in assay [2].
Consider `CCOCCC(=O)N1c2ccccc2OCC1C` (centres undefined), for which the IC50 in assay [1] is greater than 501 µM; in assay [2] it was 97.6 µM.
On the same counts, the results for `Cc1ccnc(NCCS(=O)(=O)NCC2CCC2)c1` are 117 µM and 265 µM.
Regarding `CC(C)OCCn1nnnc1Cc1ccc(Br)cc1`, the IC50 is 14.5 µM in assay [1] and 35.5 µM in assay [2].
Regarding `CC(=O)N1CCCC1c1cccc(Cc2ccccc2F)n1` (centres undefined), the IC50 in assay [1] was 39 µM; in assay [2], 29.2 µM.
For the compound `NC(=O)CSc1nnc(-c2cc(Br)ccc2O)[nH]1`, the values for the IC50 in assay [1] and in assay [2] were 247 µM and 210 µM, respectively.
Consider `O=C(CSc1ncnn1-c1ccccc1)N1CCCC1`, for which the IC50 in assay [1] is 101 µM; in assay [2], 200 µM.
For `N#Cc1cc(Cl)ccc1N1CCN(C(=O)C2CCC2)CC1`, in that order: greater than 50.1 µM and greater than 50.1 µM.
Turning to `CC(c1ccccc1)N(C)C(=O)CN1CCCc2cccc(F)c21` (centres undefined), the IC50 in assay [1] was greater than 50.1 µM; in assay [2], 31.2 µM.
On the same counts, the results for `C=C(C)CN1CCN(c2ccccn2)CC1` are greater than 501 µM and greater than 501 µM.
On the same counts, the results for `CCOC(C)c1nc(Cn2cccn2)cs1` (centres undefined) are greater than 50.1 µM and greater than 50.1 µM.
In the case of `CSCCN(C)Cc1cn(-c2ccccc2)nn1`, the IC50 in assay [1] and in assay [2] was greater than 501 µM each time.
Turning to `NCc1cc(Cl)ccn1`, the figures for the IC50 in assay [1] and in assay [2] were 301 µM and 156 µM, respectively.
On the same counts, the results for `CCNC(=O)NC(=O)CN(C)Cc1ccccc1` are 134 µM and 171 µM.
`O=C(Cc1ccc2c(c1)OCCO2)N1CCCC(n2ccnc2)C1` (centres undefined): the IC50 in assay [1] and in assay [2] was greater than 50.1 µM in each case.
For `O=C(CSCCO)Nc1ncc(-c2ccccc2)s1`, the IC50 was 272 µM in assay [1] and 174 µM in assay [2].
For `COc1cccc(N2Cc3nc(=O)n(C(C)C)n3C2=O)c1`, the IC50 in assay [1] and in assay [2] was greater than 50.1 µM in each case.
With `CC(C)CCOc1ccc(C(C)NC(=O)Cn2cccnc2=O)cc1` (centres undefined), the IC50 was 13.2 µM in assay [1] and 8.35 µM in assay [2].
As to `Cc1nnsc1CN1C[C@H]2CC[C@@H]1CN(Cc1ccccc1)C2`, the IC50 in assay [1] is 42.5 µM; in assay [2], 13.8 µM.
`CCc1ccc(C(=O)NCc2ccccn2)o1`: the IC50 in assay [1] was 138 µM; in assay [2] it was 40.5 µM.
For `CC(N)C(=O)N1CCC(Oc2ccccc2Cl)CC1` (centres undefined), in that order: 227 µM and 288 µM.
Consider `O=C(CC1C=CCC1)N1CCN(c2ccccn2)CC1` (centres undefined), for which the IC50 is 407 µM in assay [1] and 167 µM in assay [2].
With `CCC1CN(S(C)(=O)=O)c2ccccc2O1` (centres undefined), the IC50 in assay [1] is greater than 501 µM; in assay [2], 164 µM.
For the compound `C1CC(COCCc2noc(C3CNC3)n2)CCO1`, the IC50 in assay [1] was 279 µM; in assay [2], 337 µM.
Take `NCCCOC1CCN(C(=O)c2ccc(Br)o2)CC1`: the IC50 in assay [1] was greater than 501 µM; in assay [2] it was 76.7 µM.
